Reference: patent publication EP0041644B1 (priority 1980, dated 1981)

Legend:
[1] = water
L1210 Leukemia [2] = test: L1210 Leukemia - Test 3 (vehicle comparison); type: in vivo, mice; conditions: for Effect MST % T/C / MST Days: Day 1 only
Lewis Lung Carcinoma = Lewis Lung Carcinoma - Test 1 (ip, delayed therapy); type: in vivo, mice
B16 Melanoma [3] = test: B16 Melanoma - Test 2 (ip tumor brei); type: in vivo, mice; conditions: QD +9
L1210 Leukemia [4] = test: L1210 Leukemia - Test 2; type: in vivo, mice
B16 Melanoma [5] = test: B16 Melanoma - Test 3 (sc trocar fragments); type: in vivo, mice

[NH2][Pt]1([NH2])[O]C(=O)C([O-])C(=O)[O]1.[Na+] [Example 3, 2-Hydroxymalonato diammine platinum (II), sodium salt]
Solubility in H2O at 22-25°C [1]: > 100 mg/mL | Effect MST % T/C (L1210 Leukemia [2]; 10 mg/kg ip, vehicle H2O): 114 % T/C | MST Days (L1210 Leukemia [2]; 10 mg/kg ip, vehicle H2O): 8.0 days | Effect MST % T/C (L1210 Leukemia [2]; 10 mg/kg ip, vehicle Saline): 100 % T/C | MST Days (L1210 Leukemia [2]; 10 mg/kg ip, vehicle Saline): 7.0 days | Effect MST % T/C (L1210 Leukemia [2]; 20 mg/kg ip, vehicle H2O): 143 % T/C | MST Days (L1210 Leukemia [2]; 20 mg/kg ip, vehicle H2O): 10.0 days | Effect MST % T/C (L1210 Leukemia [2]; 20 mg/kg ip, vehicle Saline): 100 % T/C | MST Days (L1210 Leukemia [2]; 20 mg/kg ip, vehicle Saline): 7.0 days | Effect MST % T/C (L1210 Leukemia [2]; 40 mg/kg ip, vehicle H2O): 129 % T/C | MST Days (L1210 Leukemia [2]; 40 mg/kg ip, vehicle H2O): 9.0 days | Effect MST % T/C (L1210 Leukemia [2]; 40 mg/kg ip, vehicle Saline): 114 % T/C | MST Days (L1210 Leukemia [2]; 40 mg/kg ip, vehicle Saline): 8.0 days | Effect MST % T/C (L1210 Leukemia [2]; 60 mg/kg ip, vehicle H2O): 143 % T/C | MST Days (L1210 Leukemia [2]; 60 mg/kg ip, vehicle H2O): 10.0 days | Effect MST % T/C (L1210 Leukemia [2]; 60 mg/kg ip, vehicle Saline): 114 % T/C | MST Days (L1210 Leukemia [2]; 60 mg/kg ip, vehicle Saline): 8.0 days | Effect MST % T/C (L1210 Leukemia [2]; 80 mg/kg ip, vehicle H2O): 143 % T/C | MST Days (L1210 Leukemia [2]; 80 mg/kg ip, vehicle H2O): 10.0 days | Effect MST % T/C (L1210 Leukemia [2]; 80 mg/kg ip, vehicle Saline): 143 % T/C | MST Days (L1210 Leukemia [2]; 80 mg/kg ip, vehicle Saline): 10.0 days | Effect MST % T/C (L1210 Leukemia [2]; 100 mg/kg ip, vehicle H2O): 143 % T/C | MST Days (L1210 Leukemia [2]; 100 mg/kg ip, vehicle H2O): 10.0 days | Effect MST % T/C (L1210 Leukemia [2]; 100 mg/kg ip, vehicle Saline): 129 % T/C | MST Days (L1210 Leukemia [2]; 100 mg/kg ip, vehicle Saline): 9.0 days | Maximum increase in median lifespan (T/C) (L1210 Leukemia [2]; single dose ip, saline and water as vehicles): 143% | Effect MST %TC (Lewis Lung Carcinoma; 4 mg/kg/inj ip, qd 5→13): 120 %TC | MST Days (Lewis Lung Carcinoma; 4 mg/kg/inj ip, qd 5→13): 15.0 days | Effect MST %TC (Lewis Lung Carcinoma; 8 mg/kg/inj ip, qd 5→13): 140 %TC | MST Days (Lewis Lung Carcinoma; 8 mg/kg/inj ip, qd 5→13): 17.5 days | Effect MST %TC (Lewis Lung Carcinoma; 12 mg/kg/inj ip, qd 5→13): 148 %TC | MST Days (Lewis Lung Carcinoma; 12 mg/kg/inj ip, qd 5→13): 18.5 days | Effect MST %TC (Lewis Lung Carcinoma; 16 mg/kg/inj ip, qd 5→13): 160 %TC | MST Days (Lewis Lung Carcinoma; 16 mg/kg/inj ip, qd 5→13): 20.0 days | Effect MST %TC (Lewis Lung Carcinoma; 20 mg/kg/inj ip, d. 5,9&13): 124 %TC | MST Days (Lewis Lung Carcinoma; 20 mg/kg/inj ip, d. 5,9&13): 15.5 days | Effect MST %TC (Lewis Lung Carcinoma; 20 mg/kg/inj iv, d. 5,9&13): 100 %TC | MST Days (Lewis Lung Carcinoma; 20 mg/kg/inj iv, d. 5,9&13): 12.5 days | Effect MST %TC (Lewis Lung Carcinoma; 40 mg/kg/inj ip, d. 5,9&13): 148 %TC | MST Days (Lewis Lung Carcinoma; 40 mg/kg/inj ip, d. 5,9&13): 18.5 days | Effect MST %TC (Lewis Lung Carcinoma; 40 mg/kg/inj iv, d. 5,9&13): 108 %TC | MST Days (Lewis Lung Carcinoma; 40 mg/kg/inj iv, d. 5,9&13): 13.5 days | Effect MST %TC (Lewis Lung Carcinoma; 60 mg/kg/inj ip, d. 5,9&13): 196 %TC | MST Days (Lewis Lung Carcinoma; 60 mg/kg/inj ip, d. 5,9&13): 24.5 days | Effect MST %TC (Lewis Lung Carcinoma; 60 mg/kg/inj iv, d. 5,9&13): 132 %TC | MST Days (Lewis Lung Carcinoma; 60 mg/kg/inj iv, d. 5,9&13): 16.5 days | Effect MST %TC (Lewis Lung Carcinoma; 80 mg/kg/inj ip, d. 5,9&13): 268 %TC | MST Days (Lewis Lung Carcinoma; 80 mg/kg/inj ip, d. 5,9&13): 33.5 days | Effect MST %TC (Lewis Lung Carcinoma; 80 mg/kg/inj iv, d. 5,9&13): 148 %TC | MST Days (Lewis Lung Carcinoma; 80 mg/kg/inj iv, d. 5,9&13): 18.5 days | long-term survivors (day 48) (Lewis Lung Carcinoma; given ip, at maximum T/C): 2 to 6 | maximum T/C (Lewis Lung Carcinoma; given ip, therapy from day 5): 268% | T/C (Lewis Lung Carcinoma; given iv, therapy from day 5): 148% | Average Weight Change (B16 Melanoma [3]; 2 mg/kg/day ip): -1.5 g | Effect MST % T/C (B16 Melanoma [3]; 2 mg/kg/day ip): 160 % T/C | MST Days (B16 Melanoma [3]; 2 mg/kg/day ip): 33.0 days | Average Weight Change (B16 Melanoma [3]; 4 mg/kg/day ip): -2.8 g | Effect MST % T/C (B16 Melanoma [3]; 4 mg/kg/day ip): 168 % T/C | MST Days (B16 Melanoma [3]; 4 mg/kg/day ip): 34.5 days | Average Weight Change (B16 Melanoma [3]; 8 mg/kg/day ip): -3.2 g | Effect MST % T/C (B16 Melanoma [3]; 8 mg/kg/day ip): 163 % T/C | Average Weight Change (B16 Melanoma [3]; 16 mg/kg/day ip): -2.9 g | Effect MST % T/C (B16 Melanoma [3]; 16 mg/kg/day ip): 185 % T/C | MST Days (B16 Melanoma [3]; 16 mg/kg/day ip): 38.0 days | Survivors Day 10 (60) (B16 Melanoma [3]; Day 10, 8 mg/kg/day ip): 9/10 | Survivors Day 10 (60) (B16 Melanoma [3]; Day 60 (figure in parentheses), 16 mg/kg/day ip): 1 | Effect MST % T/C (L1210 Leukemia [4]; 4 mg/kg/inj ip, qd 1→9): 100 % T/C | MST Days (L1210 Leukemia [4]; 4 mg/kg/inj ip, qd 1→9): 7.0 days | Effect MST % T/C (L1210 Leukemia [4]; 8 mg/kg/inj ip, qd 1→9): 114 % T/C | MST Days (L1210 Leukemia [4]; 8 mg/kg/inj ip, qd 1→9): 8.0 days | Effect MST % T/C (L1210 Leukemia [4]; 16 mg/kg/inj ip, qd 1→9): 157 % T/C | MST Days (L1210 Leukemia [4]; 16 mg/kg/inj ip, qd 1→9): 11.0 days | Effect MST % T/C (L1210 Leukemia [4]; 20 mg/kg/inj iv, d.1, 5&9): 100 % T/C | MST Days (L1210 Leukemia [4]; 20 mg/kg/inj iv, d.1, 5&9): 7.0 days | Effect MST % T/C (L1210 Leukemia [4]; 24 mg/kg/inj ip, qd 1→9): 207 % T/C | MST Days (L1210 Leukemia [4]; 24 mg/kg/inj ip, qd 1→9): 14.5 days | Effect MST % T/C (L1210 Leukemia [4]; 40 mg/kg/inj ip, d.1): 114 % T/C | MST Days (L1210 Leukemia [4]; 40 mg/kg/inj ip, d.1): 8.0 days | Effect MST % T/C (L1210 Leukemia [4]; 40 mg/kg/inj iv, d.1): 100 % T/C | MST Days (L1210 Leukemia [4]; 40 mg/kg/inj iv, d.1): 7.0 days | Effect MST % T/C (L1210 Leukemia [4]; 40 mg/kg/inj iv, d.1, 5&9): 107 % T/C | MST Days (L1210 Leukemia [4]; 40 mg/kg/inj iv, d.1, 5&9): 7.5 days | Effect MST % T/C (L1210 Leukemia [4]; 60 mg/kg/inj ip, d.1): 121 % T/C | MST Days (L1210 Leukemia [4]; 60 mg/kg/inj ip, d.1): 8.5 days | Effect MST % T/C (L1210 Leukemia [4]; 60 mg/kg/inj iv, d.1): 100 % T/C | MST Days (L1210 Leukemia [4]; 60 mg/kg/inj iv, d.1): 7.0 days | Effect MST % T/C (L1210 Leukemia [4]; 60 mg/kg/inj iv, d.1, 5&9): 143 % T/C | MST Days (L1210 Leukemia [4]; 60 mg/kg/inj iv, d.1, 5&9): 10.0 days | Effect MST % T/C (L1210 Leukemia [4]; 80 mg/kg/inj iv, d.1, 5&9): 100 % T/C | MST Days (L1210 Leukemia [4]; 80 mg/kg/inj iv, d.1, 5&9): 7.0 days | Effect MST % T/C (L1210 Leukemia [4]; 90 mg/kg/inj ip, d.1): 143 % T/C | MST Days (L1210 Leukemia [4]; 90 mg/kg/inj ip, d.1): 10.0 days | Effect MST % T/C (L1210 Leukemia [4]; 90 mg/kg/inj iv, d.1): 107 % T/C | MST Days (L1210 Leukemia [4]; 90 mg/kg/inj iv, d.1): 7.5 days | Effect MST % T/C (L1210 Leukemia [4]; 120 mg/kg/inj ip, d.1): 136 % T/C | MST Days (L1210 Leukemia [4]; 120 mg/kg/inj ip, d.1): 9.5 days | Effect MST % T/C (L1210 Leukemia [4]; 120 mg/kg/inj iv, d.1): 100 % T/C | MST Days (L1210 Leukemia [4]; 120 mg/kg/inj iv, d.1): 7.0 days | maximum T/C (L1210 Leukemia [4]; iv, multi-dose regimen): 143% | maximum T/C (L1210 Leukemia [4]; multi-dose therapy ip (qd 1→9)): 207-214% | maximum T/C (L1210 Leukemia [4]; single ip doses, ip L1210): 143% | Effect MST %TC (B16 Melanoma [5]; 8 mg/kg/inj ip, qd 1→9): 102 %TC | MST Days (B16 Melanoma [5]; 8 mg/kg/inj ip, qd 1→9): 31.0 days | Effect MST %TC (B16 Melanoma [5]; 12 mg/kg/inj ip, qd 1→9): 92 %TC | MST Days (B16 Melanoma [5]; 12 mg/kg/inj ip, qd 1→9): 28.0 days | Effect MST %TC (B16 Melanoma [5]; 16 mg/kg/inj ip, qd 1→9): 125 %TC | MST Days (B16 Melanoma [5]; 16 mg/kg/inj ip, qd 1→9): 38.0 days | Effect MST %TC (B16 Melanoma [5]; 20 mg/kg/inj iv, d.1, 5&9): 93 %TC | MST Days (B16 Melanoma [5]; 20 mg/kg/inj iv, d.1, 5&9): 28.5 days | Effect MST %TC (B16 Melanoma [5]; 24 mg/kg/inj ip, qd 1→9): TOX | MST Days (B16 Melanoma [5]; 24 mg/kg/inj ip, qd 1→9): TOX | Effect MST %TC (B16 Melanoma [5]; 40 mg/kg/inj iv, d.1, 5&9): 108 %TC | MST Days (B16 Melanoma [5]; 40 mg/kg/inj iv, d.1, 5&9): 33.0 days | Effect MST %TC (B16 Melanoma [5]; 60 mg/kg/inj iv, d.1, 5&9): 108 %TC | MST Days (B16 Melanoma [5]; 60 mg/kg/inj iv, d.1, 5&9): 33.0 days | Effect MST %TC (B16 Melanoma [5]; 80 mg/kg/inj iv, d.1, 5&9): TOX | MST Days (B16 Melanoma [5]; 80 mg/kg/inj iv, d.1, 5&9): TOX | Effect MST %TC (B16 Melanoma [5]; 100 mg/kg/inj iv, d.1, 5&9): TOX | MST Days (B16 Melanoma [5]; 100 mg/kg/inj iv, d.1, 5&9): TOX | T/C (B16 Melanoma [5]; given ip, sc-implanted B16 melanoma): 125% | maximum T/C (B16 Melanoma [5]; given iv, sc-implanted B16 melanoma): not active
